Results: patent publication US20200000772A1, “CENICRIVIROC COMBINATION THERAPY FOR THE TREATMENT OF FIBROSIS” (Tobira Therapeutics, Inc., priority 2014, published 2020)

Columns and labels:
[1] = Tissue distribution in rodents; type: in vivo
Excerpt: Infiltration of various immune cell populations, resulting in inflammation, is a central pathogenic feature following acute- and chronic liver injury. Chronic liver inflammation leads to continuous hepatocyte injury which can lead to fibrosis, cirrhosis, ESLD, and HCC. Interactions between intra-hepatic immune cells lead to increased activation and migration of Kupffer cells and HSCs and are critical events for developing liver fibrosis. Additionally, there is increasing evidence of the role of CCR2 and CCR5 in the pathogenesis of liver fibrosis. These members of the C-C chemokine family are expressed by pro-fibrogenic cells including pro-inflammatory monocytes and macrophages, Kupffer cells, and HSCs. CCR2 signaling plays an important role in the pathogenesis of renal fibrosis through regulation of bone marrow-derived fibroblasts. CCR2- and CCR5-positive monocytes as well as CCR5-positive T lymphocytes are attracted by locally released MCP-1 and RANTES, and can contribute to chronic interstitial inflammation in the kidney. […] Disruption of the intestinal microbiota and its downstream effects on the gut-liver axis both play an important role in metabolic disorders such as obesity, non-alcoholic fatty liver disease (NAFLD) and non-alcoholic steatohepatitis (NASH).

[2] = test system: HIV-1 infected adult subjects; assay: Study 202 biomarkers of inflammation; type: in vivo, human
Experimental: As an exploratory analysis, levels of inflammation biomarkers MCP-1, sCD14, high sensitivity C-reactive protein [hs-CRP], interleukin-6 [IL-6], D-dimer, and fibrinogen) were measured. Baseline values and changes from baseline at Week 24 and Week 48 of MCP-1, sCD14, hs-CRP, IL-6, D-dimer, and fibrinogen are summarized in Table 22.
The sCD14 samples were originally analyzed in 2 separate batches: Batch 1 included samples leading up to the Week 24 primary analysis and Batch 2 included Week 32 and Week 48 (end of study) samples. A repeat analysis of archived samples all analyzed in one batch was conducted for consistency in analysis across time points. To control for the effects of covariates, a linear mixed-model repeated-measures analysis was conducted on the changes from baseline in sCD14 (analysis dated September 2013).

CCCCOCCOc1ccc(-c2ccc3c(c2)/C=C(/C(=O)Nc2ccc([S@@+]([O-])Cc4cncn4CCC)cc2)CCCN3CC(C)C)cc1 [CVC, (S)-8-[4-(2-Butoxyethoxy)phenyl]-1-isobutyl-N-(4-{[(1-propyl-1H-imidazol-5-yl)methyl]sulfinyl}phenyl)-1,2,3,4-tetrahydro-1-benzazocine-5-carboxamide]
tissue distribution [1]: high distribution in the liver, mesenteric lymph node, and intestine | D-dimer Changes from baseline at Week 24, Mean ([2]; CVC 100 mg): -32 ng/mL | D-dimer Changes from baseline at Week 24, Median ([2]; CVC 100 mg): -1.0 ng/mL | D-dimer Changes from baseline at Week 48, Mean ([2]; CVC 100 mg): -41 ng/mL | D-dimer Changes from baseline at Week 48, Median ([2]; CVC 100 mg): -1.0 ng/mL | Fibrinogen Changes from baseline at Week 24, Mean ([2]; CVC 100 mg): -3 mg/dL | Fibrinogen Changes from baseline at Week 24, Median ([2]; CVC 100 mg): -14 mg/dL | Fibrinogen Changes from baseline at Week 48, Mean ([2]; CVC 100 mg): 11 mg/dL | Fibrinogen Changes from baseline at Week 48, Median ([2]; CVC 100 mg): 15 mg/dL | IL-6 Changes from baseline at Week 24, Mean ([2]; CVC 100 mg): 0.42 pg/mL | IL-6 Changes from baseline at Week 24, Median ([2]; CVC 100 mg): 0.00 pg/mL | IL-6 Changes from baseline at Week 48, Mean ([2]; CVC 100 mg): 0.29 pg/mL | IL-6 Changes from baseline at Week 48, Median ([2]; CVC 100 mg): 0.00 pg/mL | MCP-1 Changes from baseline at Week 24, Mean ([2]; CVC 100 mg): 493 pg/mL | MCP-1 Changes from baseline at Week 24, Median ([2]; CVC 100 mg): 429 pg/mL | MCP-1 Changes from baseline at Week 48, Mean ([2]; CVC 100 mg): 636 pg/mL | MCP-1 Changes from baseline at Week 48, Median ([2]; CVC 100 mg): 523 pg/mL | hs-CRP Changes from baseline at Week 24, Mean ([2]; CVC 100 mg): -0.16 mg/dL | hs-CRP Changes from baseline at Week 24, Median ([2]; CVC 100 mg): -0.03 mg/dL | hs-CRP Changes from baseline at Week 48, Mean ([2]; CVC 100 mg): -0.08 mg/dL | hs-CRP Changes from baseline at Week 48, Median ([2]; CVC 100 mg): -0.01 mg/dL | plasma MCP-1 over time ([2]; CVC 100 mg and 200 mg, EFV, up to Week 48): dose-response was observed with CVC in increases over time | sCD14 Changes from baseline Week 32, Mean ([2]; CVC 100 mg, original values): 110000 pg/mL | sCD14 Changes from baseline Week 32, Median ([2]; CVC 100 mg, original values): 120000 pg/mL | sCD14 Changes from baseline at Week 12, Mean ([2]; CVC 100 mg, original values): -140000 pg/mL | sCD14 Changes from baseline at Week 12, Median ([2]; CVC 100 mg, original values): -160000 pg/mL | sCD14 Changes from baseline at Week 24, Mean ([2]; CVC 100 mg, original values): -190000 pg/mL | sCD14 Changes from baseline at Week 24, Median ([2]; CVC 100 mg, original values): -180000 pg/mL | sCD14 Changes from baseline at Week 48, Mean ([2]; CVC 100 mg, original values): 100000 pg/mL | sCD14 Changes from baseline at Week 48, Median ([2]; CVC 100 mg, original values): 100000 pg/mL | D-dimer Changes from baseline at Week 24, Mean ([2]; CVC 200 mg): -64 ng/mL | D-dimer Changes from baseline at Week 24, Median ([2]; CVC 200 mg): -50 ng/mL | D-dimer Changes from baseline at Week 48, Mean ([2]; CVC 200 mg): -70 ng/mL | D-dimer Changes from baseline at Week 48, Median ([2]; CVC 200 mg): -50 ng/mL | Fibrinogen Changes from baseline at Week 24, Mean ([2]; CVC 200 mg): -7 mg/dL | Fibrinogen Changes from baseline at Week 24, Median ([2]; CVC 200 mg): -8 mg/dL | Fibrinogen Changes from baseline at Week 48, Mean ([2]; CVC 200 mg): -10 mg/dL | Fibrinogen Changes from baseline at Week 48, Median ([2]; CVC 200 mg): -13 mg/dL | IL-6 Changes from baseline at Week 24, Mean ([2]; CVC 200 mg): 0.81 pg/mL | IL-6 Changes from baseline at Week 24, Median ([2]; CVC 200 mg): 0.00 pg/mL | IL-6 Changes from baseline at Week 48, Mean ([2]; CVC 200 mg): -0.04 pg/mL | IL-6 Changes from baseline at Week 48, Median ([2]; CVC 200 mg): 0.00 pg/mL | MCP-1 Changes from baseline at Week 24, Mean ([2]; CVC 200 mg): 753 pg/mL | MCP-1 Changes from baseline at Week 24, Median ([2]; CVC 200 mg): 695 pg/mL | MCP-1 Changes from baseline at Week 48, Mean ([2]; CVC 200 mg): 900 pg/mL | MCP-1 Changes from baseline at Week 48, Median ([2]; CVC 200 mg): 756 pg/mL | hs-CRP Changes from baseline at Week 24, Mean ([2]; CVC 200 mg): -0.07 mg/dL | hs-CRP Changes from baseline at Week 24, Median ([2]; CVC 200 mg): -0.04 mg/dL
